The values below are quoted from earlier work in patent publication US9161911B2, “Gastric retentive pharmaceutical compositions for treatment and prevention of CNS disorders” (priority 2008, dated 2015).

Each structure is given as a SMILES string.

Take `NC(Cc1ccc(O)c(O)c1)C(=O)O` (single isomer, unassigned; (-)) [Levodopa, (−)-L-alpha-amino-beta-(3,4-dihydroxybenzene) propanoic acid]: the “solubility in aqueous media” value is reported as “poorly soluble” and the solubility in water entry was “slightly soluble (aqueous solubility (measured at 20° C.) in the range of 2% to 10% by weight)”.

`C[C@@](Cc1ccc(O)c(O)c1)(NN)C(=O)O.O` [Carbidopa, (−)-L-alpha-hydrazino-alpha-methyl-beta-(3,4-dihydroxybenzene) propanoic acid monohydrate]: the “solubility in aqueous media” value is on record as “poorly soluble” and the solubility in water result is on record as “slightly soluble (aqueous solubility (measured at 20° C.) in the range of 2% to 10% by weight)”.
